Measurements reported in patent US11091478B2 (Fochon Pharmaceuticals, Ltd., priority 2017, dated 2021).
pIC50: −log10 of the molar value.

How the values were obtained:
[1] = test system: DOHH2 cells; assay: Cell proliferation assay (MTS), DOHH2 cells, 120 h; assay type: cell-based; conditions: Homo sapiens, DOHH-2, 120 h
How it was run: (§1)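 Treatment lasts 72 h for RS4;11 and 120 h for DOHH2 cells seeded at 5000 per well in serum-containing RPMI-1640. A 2 h MTS step, halted with 10% SDS, precedes dual-wavelength absorbance reading and IC50 fitting.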

[2] = test system: RS4;11 cells; assay: Cell proliferation assay (MTS), RS4;11 cells, 72 h; assay type: cell-based; conditions: Homo sapiens, RS4-11, 72 h
How it was run: as §1

pIC50 [2] | Structure (SMILES) | pIC50 [1]
8.22 | CC1(C)CCC(CN2CCN(c3ccc(C(=O)NS(=O)(=O)c4cc5c(c([N+](=O)[O-])c4)N[C@@H](CC4CCN(S(C)(=O)=O)CC4)CO5)c(Oc4cnc5[nH]ccc5c4)c3)CC2)=C(c2ccc(Cl)cc2)C1 [Example 2-196, (S)-2-((1H-pyrrolo[2,3-b]pyridin-5-yl)oxy)-4-(4-((4′-chloro-5,5-dimethyl-3,4,5,6-tetra-hydro-[1,1′-biphenyl]-2-yl)methyl)piperazin-1-yl)-N-((3-((1-(methysulfonyl)piperidin-4-yl)methyl)-5-nitro-3,4-dihydro-2H-benzo[b][1,4]oxazin-7-yl)sulfonyl)benzamide] | 7.03
7.74 | CC1(C)CCC(CN2CCN(c3ccc(C(=O)NS(=O)(=O)c4cc5c(c([N+](=O)[O-])c4)N[C@H](Cc4ccccn4)CO5)c(Oc4cnc5[nH]ccc5c4)c3)CC2)=C(c2ccc(Cl)cc2)C1 [Example 2-199, (R)-2-((1H-pyrrolo[2,3-b]pyridin-5-yl)oxy)-4-(4-((4′-chloro-5,5-dimethyl-3,4,5,6-tetra-hydro-[1,1′-biphenyl]-2-yl)methyl)piperazin-1-yl)-N-((5-nitro-3-(pyridin-2-ylmethyl)-3,4-dihydro-2H-benzo[b][1,4]oxazin-7-yl)sulfonyl)benzamide] | 7.26
8.52 | COc1ccc(C[C@@H]2COc3cc(S(=O)(=O)NC(=O)c4ccc(N5CCN(CC6=C(c7ccc(Cl)cc7)CC(C)(C)CC6)CC5)cc4Oc4cnc5[nH]ccc5c4)cc([N+](=O)[O-])c3N2)nc1 [Example 2-200, (R)-2-((1H-pyrrolo[2,3-b]pyridin-5-yl)oxy)-4-(4-((4′-chloro-5,5-dimethyl-3,4,5,6-tetra-hydro-[1,1′-biphenyl]-2-yl)methyl)piperazin-1-yl)-N-((3-((5-methoxypyridin-2-yl)meth-yl)-5-nitro-3,4-dihydro-2H-benzo[b][1,4]oxazin-7-yl)sulfonyl)benzamide] | 6.66
7.66 | CN1CCC(C[C@@H]2COc3cc(S(=O)(=O)NC(=O)c4ccc(N5CCN(CC6=C(c7ccc(Cl)cc7)CC(C)(C)CC6)CC5)cc4Oc4cnc5[nH]ccc5c4)cc([N+](=O)[O-])c3N2)CC1 [Example 2-201, (R)-2-((1H-pyrrolo[2,3-b]pyridin-5-yl)oxy)-4-(4-((4′-chloro-5,5-dimethyl-3,4,5,6-tetra-hydro-[1,1′-biphenyl]-2-yl)methyl)piperazin-1-yl)-N-((3-((1-methylpiperidin-4-yl)meth-yl)-5-nitro-3,4-dihydro-2H-benzo[b][1,4]ox-azin-7-yl)sulfonyl)benzamide] | 6.84
7.44 | COC(=O)N1CCC(C[C@@H]2COc3cc(S(=O)(=O)NC(=O)c4ccc(N5CCN(CC6=C(c7ccc(Cl)cc7)CC(C)(C)CC6)CC5)cc4Oc4cnc5[nH]ccc5c4)cc([N+](=O)[O-])c3N2)CC1 [Example 2-202, methyl (R)-4-((7-(N-(2-((1H-pyrrolo[2,3-b]pyridin-5-yl)oxy)-4-(4-((4′-chloro-5,5-dimethyl-3,4,5,6-tetrahydro-[1,1′-biphenyl]-2-yl)methyl)piperazin-1-yl)benzoyl)sulfamoyl)-5-nitro-3,4-dihydro-2H-benzo[b][1,4]oxazin-3-yl)methyl)piperidine-1-carboxylate] | 7.20
7.70 | CC(=O)N1CCC(C[C@@H]2COc3cc(S(=O)(=O)NC(=O)c4ccc(N5CCN(CC6=C(c7ccc(Cl)cc7)CC(C)(C)CC6)CC5)cc4Oc4cnc5[nH]ccc5c4)cc([N+](=O)[O-])c3N2)CC1 [Example 2-203, (R)-2-((1H-pyrrolo[2,3-b]pyridin-5-yl)oxy)-N-((3-((1-acetylpiperidin-4-yl)methyl)-5-nitro-3,4-dihydro-2H-benzo[b][1,4]oxazin-7-yl)sulfonyl)-4-(4-((4′-chloro-5,5-dimethyl-3,4,5,6-tetrahydro-[1,1′-biphenyl]-2-yl)meth-yl)piperazin-1-yl)benzamide] | 7.02
7.59 | CC1(C)CCC(CN2CCN(c3ccc(C(=O)NS(=O)(=O)c4cc5c(c([N+](=O)[O-])c4)N[C@H](CC4CCN(S(C)(=O)=O)CC4)CO5)c(Oc4cnc5[nH]ccc5c4)c3)CC2)=C(c2ccc(Cl)cc2)C1 [Example 2-204, (R)-2-((1H-pyrrolo[2,3-b]pyridin-5-yl)oxy)-4-(4-((4′-chloro-5,5-dimethyl-3,4,5,6-tetra-hydro-[1,1′-biphenyl]-2-yl)methyl)piperazin-1-yl)-N-((3-((1-(methylsulfonyl)piperidin-4-yl)methyl)-5-nitro-3,4-dihydro-2H-benzo [b][1,4]oxazin-7-yl)sulfonyl)benzamide] | 7.77
7.68 | CC1(C)CCC(CN2CCN(c3ccc(C(=O)NS(=O)(=O)c4cc5c(c([N+](=O)[O-])c4)N[C@@H](c4ccc(C#N)cc4)CO5)c(Oc4cnc5[nH]ccc5c4)c3)CC2)=C(c2ccc(Cl)cc2)C1 [Example 2-206, (S)-2-((1H-pyrrolo[2,3-b]pyridin-5-yl)oxy)-4-(4-((4′-chloro-5,5-dimethyl-3,4,5,6-tetra-hydro-[1,1′-biphenyl]-2-yl)methyl)piperazin-1-yl)-N-((3-(4-cyanophenyl)-5-nitro-3,4-dihdyro-2H-benzo[b][1,4]oxazin-7-yl)sulfo-nyl)benzamide] | 6.51
7.77 | CC1(C)CCC(CN2CCN(c3ccc(C(=O)NS(=O)(=O)c4cc5c(c([N+](=O)[O-])c4)N[C@@H](Cc4ccccc4C#N)CO5)c(Oc4cnc5[nH]ccc5c4)c3)CC2)=C(c2ccc(Cl)cc2)C1 [Example 2-208, (S)-2-((1H-pyrrolo[2,3-b]pyridin-5-yl)oxy)-4-(4-((4′-chloro-5,5-dimethyl-3,4,5,6-tetra-hydro-[1,1′-biphenyl]-2-yl)methyl)piperazin-1-yl)-N-((3-(2-cyanobenzyl)-5-nitro-3,4-dihydro-2H-benzo[b][1,4]oxazin-7-yl)sulfo-nyl)benzamide] | 6.96
9.00 | CC1(C)CCC(c2ccc(Cl)cc2)=C(CN2CCN(c3ccc(C(=O)NS(=O)(=O)c4cc5c(c([N+](=O)[O-])c4)N[C@H](CN4C[C@@H]6C[C@H]4CO6)CO5)c(Oc4cnc5[nH]ccc5c4)c3)CC2)C1 [Example 2-209, 2-((1H-pyrrolo[2,3-b]pyridin-5-yl)oxy)-N-(((R)-3-(((1S,4S)-2-oxa-5-azabicyclo[2.2.1]heptan-5-yl)methyl)-5-nitro-3,4-dihydro-2H-benzo[b][1,4]oxazin-7-yl)sulfonyl)-4-(4-((4′-chloro-4,4-dimethyl-3,4,5,6-tetrahydro-[1,1′-biphenyl]-2-yl)methyl)piperazin-1-yl) benzamide] | 7.46
8.15 | C[C@@H]1CN(C[C@@H]2COc3cc(S(=O)(=O)NC(=O)c4ccc(N5CCN(CC6=C(c7ccc(Cl)cc7)CCC(C)(C)C6)CC5)cc4Oc4cnc5[nH]ccc5c4)cc([N+](=O)[O-])c3N2)CCN1C1COC1 [Example 2-210, 2-((1H-pyrrolo[2,3-b]pyridin-5-yl)oxy)-4-(4-((4′-chloro-4,4-dimethyl-3,4,5,6-tetrahydro-[1,1′-biphenyl]-2-yl)methyl)piperazin-1-yl)-N-(((R)-3-(((R)-3-methyl-4-(oxetan-3-yl)piperazin-1-yl)methyl)-5-nitro-3,4-dihydro-2H-benzo[b][1,4]oxazin-7-yl)sulfonyl) benzamide] | 7.46
7.46 | CC1(C)CCC(c2ccc(Cl)cc2)=C(CN2CCN(c3ccc(C(=O)NS(=O)(=O)c4cc5c(c([N+](=O)[O-])c4)N[C@@H](Cc4ccccn4)CO5)c(Oc4cnc5[nH]ccc5c4)c3)CC2)C1 [Example 2-211, (S)-2-((1H-pyrrolo[2,3-b]pyridin-5-yl)oxy)-4-(4-((4′-chloro-4,4-dimethyl-3,4,5,6-tetra-hydro-[1,1′-biphenyl]-2-yl)methyl)piperazin-1-yl)-N-((5-nitro-3-(pyridin-2-ylmethyl)-3,4-dihydro-2H-benzo[b][1,4]oxazin-7-yl)sulfonyl)benzamide] | 7.04
8.10 | CC1(C)CCC(c2ccc(Cl)cc2)=C(CN2CCN(c3ccc(C(=O)NS(=O)(=O)c4cc5c(c([N+](=O)[O-])c4)N[C@@H](C4CCOCC4)CO5)c(Oc4cnc5[nH]ccc5c4)c3)CC2)C1 [Example 2-212, (S)-2-((1H-pyrrolo[2,3-b]pyridin-5-yl)oxy)-4-(4-((4′-chloro-4,4-dimethyl-3,4,5,6-tetra-hydro-[1,1′-biphenyl]-2-yl)methyl)piperazin-1-yl)-N-((5-nitro-3-(tetrahydro-2H-pyran-4-yl)-3,4-dihydro-2H-benzo[b][1,4]oxazin-7-yl)sulfonyl)benzamide] | 7.57
8.10 | CC1(C)CCC(c2ccc(Cl)cc2)=C(CN2CCN(c3ccc(C(=O)NS(=O)(=O)c4cc5c(c([N+](=O)[O-])c4)N[C@H](C4CCOCC4)CO5)c(Oc4cnc5[nH]ccc5c4)c3)CC2)C1 [Example 2-213, (R)-2-((1H-pyrrolo[2,3-b]pyridin-5-yl)oxy)-4-(4-((4′-chloro-4,4-dimethyl-3,4,5,6-tetra-hydro-[1,1′-biphenyl]-2-yl)methyl)piperazin-1-yl)-N-((5-nitro-3-(tetrahydro-2H-pyran-4-yl)-3,4-dihydro-2H-benzo[b][1,4]oxazin-7-yl)sulfonyl)benzamide] | 7.39
7.80 | CC1(C)CCC(CN2CCN(c3ccc(C(=O)NS(=O)(=O)c4cc5c(c([N+](=O)[O-])c4)N[C@H](CC4CCNCC4)CO5)c(Oc4cnc5[nH]ccc5c4)c3)CC2)=C(c2ccc(Cl)cc2)C1 [Example 2-214, (R)-2-((1H-pyrrolo[2,3-b]pyridin-5-yl)oxy)-4-(4-((4′-chloro-5,5-dimethyl-3,4,5,6-tetra-hydro-[1,1′-biphenyl]-2-yl)methyl)piperazin-1-yl)-N-((5-nitro-3-(piperidin-4-ylmethyl)-3,4-dihydro-2H-benzo[b][1,4]oxazin-7-yl)sulfonyl)benzamide] | 6.33
